T/C data for 27 compounds are collected here from PubChem BioAssay AID330 (DTP/NCI, 2004).

The test relates to P388 leukemia ip, CD2F1 mice, survival T/C. Kind of test: NCI In Vivo Anticancer Drug Screen. Data for tumor model P388 Leukemia (intraperitoneal) in CD2F1 (CDF1) mice. The settings on record: endpoint: median survival time, higher = longer survival. In a few lines:
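Mice carrying the transplanted tumor received test compound or vehicle. Survival was recorded in each group, and the value is the treated-group measurement divided by that of the vehicle-treated control group.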

The mark [1] stands for this setting: dose: 50.0 mg/kg/injection, schedule: Q01DX005 (ip), vehicle: saline with Tween-80.
The mark [2] stands for this setting: dose: 100.0 mg/kg/injection, schedule: Q01DX005 (ip), vehicle: saline with Tween-80.
Where [3] appears, read: dose: 200.0 mg/kg/injection, schedule: Q01DX005 (ip), vehicle: saline with Tween-80.
[4] abbreviates: dose: 50.0 mg/kg/injection, schedule: Q01DX009 (ip), vehicle: saline.
[5] abbreviates: dose: 100.0 mg/kg/injection, schedule: Q01DX009 (ip), vehicle: saline.
[6] abbreviates: dose: 200.0 mg/kg/injection, schedule: Q01DX009 (ip), vehicle: saline.
[7] abbreviates: dose: 60.0 mg/kg/injection, schedule: Q01DX005 (ip), vehicle: saline.
Setting [8] is: dose: 120.0 mg/kg/injection, schedule: Q01DX005 (ip), vehicle: saline.
The mark [9] stands for this setting: dose: 240.0 mg/kg/injection, schedule: Q01DX005 (ip), vehicle: saline.
[10] abbreviates: dose: 50.0 mg/kg/injection, schedule: Q01DX009 (ip), vehicle: saline with Tween-80.
Where [11] appears, read: dose: 100.0 mg/kg/injection, schedule: Q01DX009 (ip), vehicle: saline with Tween-80.
Setting [12] is: dose: 200.0 mg/kg/injection, schedule: Q01DX009 (ip), vehicle: saline with Tween-80.
The mark [13] stands for this setting: dose: 60.0 mg/kg/injection, schedule: Q01DX005 (ip), vehicle: saline with Tween-80.
The mark [14] stands for this setting: dose: 120.0 mg/kg/injection, schedule: Q01DX005 (ip), vehicle: saline with Tween-80.
The mark [15] stands for this setting: dose: 240.0 mg/kg/injection, schedule: Q01DX005 (ip), vehicle: saline with Tween-80.
Setting [16] is: dose: 60.0 mg/kg/injection, schedule: Q01DX005 (ip), vehicle: Klucel (hydroxypropylcellulose) (HPC).
[17] abbreviates: dose: 120.0 mg/kg/injection, schedule: Q01DX005 (ip), vehicle: Klucel (hydroxypropylcellulose) (HPC).
Setting [18] is: dose: 100.0 mg/kg/injection, schedule: Q04DX002 (ip), vehicle: saline with Tween-80.
Where [19] appears, read: dose: 200.0 mg/kg/injection, schedule: Q04DX002 (ip), vehicle: saline with Tween-80.
The mark [20] stands for this setting: dose: 50.0 mg/kg/injection, schedule: Q01DX009 (ip), vehicle: Klucel (hydroxypropylcellulose) (HPC).
[21] abbreviates: dose: 100.0 mg/kg/injection, schedule: Q01DX009 (ip), vehicle: Klucel (hydroxypropylcellulose) (HPC).

Values joined by “and” are separate entries in the source; they are usually repeats but may differ in a detail not shown here. Identical values can stand only once. Inconclusive results and toxic doses are left out.

For `CC(=O)c1c(OCC(O)CNC(C)C)ccc2c(C)cc(=O)oc12` (stereo unspecified), the T/C under setting [1] was 100 % of control and the T/C under setting [2] is 92 % of control.

Consider `C(#CC1CO1)CCCC#CC1CO1` (stereo unspecified), for which the T/C reads like this: (dose: 12.5 mg/kg/injection, schedule: Q01DX005 (ip), vehicle: saline with Tween-80) 106 % of control; (dose: 25.0 mg/kg/injection, schedule: Q01DX005 (ip), vehicle: saline with Tween-80) 110 % of control; under setting [1], 107 % of control and 124 % of control.

As to `COc1ccc(S(=O)(=O)N/N=C/c2cc([N+](=O)[O-])cc(I)c2O)cc1`, the T/C runs as follows: under setting [1], 101 % of control; under setting [2], 100 % of control; under setting [3], 117 % of control.

On to `CSCCCCCCCCCCSC`, for which the T/C is, setting by setting: under setting [4], 99 % of control; under setting [5], 100 % of control; under setting [6], 99 % of control.

For the compound `c1ccc2c(NCCCN3CCN(CCCNc4c5ccccc5nc5ccccc45)CC3)c3ccccc3nc2c1`, the T/C was 110 % of control (dose: 0.93 mg/kg/injection, schedule: Q01DX005 (ip), vehicle: Klucel (hydroxypropylcellulose) (HPC)) and 104 % of control (dose: 1.88 mg/kg/injection, schedule: Q01DX005 (ip), vehicle: Klucel (hydroxypropylcellulose) (HPC)).

As to `O=C(c1cccc(C(=O)N2CCOCC2)n1)N1CCOCC1`, the T/C is 106 % of control under setting [7], 100 % of control under setting [8] and 106 % of control under setting [9].

`C#CC1(OC(=O)Nc2cccc(Cl)c2)CCCCC1`: the T/C by setting is: (dose: 12.5 mg/kg/injection, schedule: Q01DX009 (ip), vehicle: saline with Tween-80) 91 % of control and 97 % of control; (dose: 25.0 mg/kg/injection, schedule: Q01DX009 (ip), vehicle: saline with Tween-80) 98 % of control and 110 % of control; under setting [10], 102 % of control and 105 % of control and 90 % of control; under setting [11], 106 % of control and 108 % of control; under setting [12], 97 % of control; (dose: 400.0 mg/kg/injection, schedule: Q01DX009 (ip), vehicle: saline with Tween-80) 94 % of control.

Take `CC(=O)c1ccc(N/N=[N+](/C)[O-])cc1`: the T/C under setting [13] is 99 % of control, the T/C under setting [14] is 101 % of control and the T/C under setting [15] is 99 % of control.

Consider `CCOC(=O)C(=CN(C)c1ccc(C)cc1)C(=O)OCC`, for which the T/C runs as follows: under setting [10], 100 % of control; under setting [11], 103 % of control; under setting [12], 95 % of control.

Regarding `CCC1=C[C@H]2CN(CCc3c([nH]c4ccccc34)[C@@](C(=O)OC)(c3cc4c(cc3OC)N(C)[C@H]3[C@@](O)(C(=O)NN)[C@H](O)[C@]5(CC)C=CCN6CC[C@]43[C@@H]65)C2)C1`, the T/C is 174 % of control (dose: 0.5 mg/kg/injection, schedule: Q01DX001 (ip), vehicle: water); 164 % of control and 175 % of control (dose: 1.0 mg/kg/injection, schedule: Q01DX001 (ip), vehicle: water); 183 % of control and 193 % of control (dose: 2.0 mg/kg/injection, schedule: Q01DX001 (ip), vehicle: water).

For `COC(=O)c1nc(N)nc(C(=O)OC)c1C(=O)c1ccco1`, the T/C by setting is: under setting [16], 101 % of control; under setting [17], 103 % of control.

Turning to `CC(=O)Nc1ccsc1S(=O)(=O)c1sccc1NC(C)=O`, the T/C is 100 % of control under setting [18]; 99 % of control under setting [19]; 98 % of control (dose: 400.0 mg/kg/injection, schedule: Q04DX002 (ip), vehicle: saline with Tween-80).

Consider `CC1OC(Sc2ncc[nH]2)C(O)C(O)C1O` (stereo unspecified), for which the T/C was 95 % of control under setting [7], 94 % of control under setting [8] and 100 % of control under setting [9].

With `CCOC(=O)NC(=S)Nc1ccn(C)c1`, the T/C is, setting by setting: (dose: 50.0 mg/kg/injection, schedule: Q04DX003 (ip), vehicle: saline with Tween-80) 99 % of control and 101 % of control; (dose: 100.0 mg/kg/injection, schedule: Q04DX003 (ip), vehicle: saline with Tween-80) 100 % of control and 94 % of control and 97 % of control; (dose: 200.0 mg/kg/injection, schedule: Q04DX003 (ip), vehicle: saline with Tween-80) 100 % of control; (dose: 400.0 mg/kg/injection, schedule: Q04DX003 (ip), vehicle: saline with Tween-80) 98 % of control and 103 % of control and 97 % of control.

Take `CC(=O)NS(=O)(=O)c1ccc(N=Nc2c(O)n(-c3ccccc3)n(-c3ccccc3)c2=O)cc1`: the T/C reads like this: under setting [20], 88 % of control; under setting [21], 101 % of control; (dose: 200.0 mg/kg/injection, schedule: Q01DX009 (ip), vehicle: Klucel (hydroxypropylcellulose) (HPC)) 109 % of control.

Consider `c1ccc(Nc2ccc(CN3CCCCC3)cc2)cc1`, for which the T/C was 93 % of control under setting [16]; 99 % of control under setting [17]; 87 % of control (dose: 240.0 mg/kg/injection, schedule: Q01DX005 (ip), vehicle: Klucel (hydroxypropylcellulose) (HPC)).

With `COc1ccc(C(=O)CSC(=S)N2CCCCC2)cc1`, the T/C was 86 % of control under setting [20] and 86 % of control under setting [21].

With `CCc1cccc(NC(=O)NNC(=O)c2ccncc2)c1`, the T/C by setting is: under setting [20], 96 % of control; under setting [21], 100 % of control.

Take `CC1(C(N)C(=O)O)CC(Cl)=NO1` (stereo unspecified): the T/C was 108 % of control (dose: 4.0 mg/kg/injection, schedule: Q01DX009 (ip), vehicle: other); 103 % of control (dose: 8.0 mg/kg/injection, schedule: Q01DX009 (ip), vehicle: other); 100 % of control (dose: 16.0 mg/kg/injection, schedule: Q01DX009 (ip), vehicle: other); 103 % of control (dose: 32.0 mg/kg/injection, schedule: Q01DX009 (ip), vehicle: other); 103 % of control (dose: 64.0 mg/kg/injection, schedule: Q01DX009 (ip), vehicle: other); 94 % of control (dose: 128.0 mg/kg/injection, schedule: Q01DX009 (ip), vehicle: other).

As to `CN(C)Sc1ccc(Cl)cc1[N+](=O)[O-]`, the T/C is, setting by setting: under setting [10], 109 % of control; under setting [11], 100 % of control; under setting [5], 97 % of control; under setting [12], 106 % of control; under setting [6], 97 % of control.

Regarding `COc1ccc(/C=N\N=C(/[O-])c2ccccc2O)cc1.COc1ccc(/C=N\N=C(/[O-])c2ccccc2O)cc1.[Ni+2]`, the T/C is 93 % of control (dose: 50.0 mg/kg/injection, schedule: Q04DX002 (ip), vehicle: saline with Tween-80); 86 % of control under setting [18]; 88 % of control under setting [19].

As to `CC1CC23C4CCCN2CC2OC2C13C1CC4OC1=O` (stereo unspecified), the T/C (dose: 12.5 mg/kg/injection, schedule: Q01DX009 (ip), vehicle: Klucel (hydroxypropylcellulose) (HPC)) is 114 % of control; the T/C (dose: 25.0 mg/kg/injection, schedule: Q01DX009 (ip), vehicle: Klucel (hydroxypropylcellulose) (HPC)) is 113 % of control; the T/C under setting [20] was 115 % of control; the T/C under setting [21] is 113 % of control.

For the compound `CCc1cc(CC)c(-c2ccco2)c(COC(=O)NC)c1`, the T/C runs as follows: under setting [10], 101 % of control; under setting [11], 101 % of control; under setting [12], 106 % of control.

As for `O=C1CC(C2(c3ccc4c(c3)OCO4)SCCCS2)CO1` (stereo unspecified), the T/C is 101 % of control (dose: 100.0 mg/kg/injection, schedule: Q01DX001 (ip), vehicle: Klucel (hydroxypropylcellulose) (HPC)); 106 % of control (dose: 200.0 mg/kg/injection, schedule: Q01DX001 (ip), vehicle: Klucel (hydroxypropylcellulose) (HPC)); 99 % of control (dose: 400.0 mg/kg/injection, schedule: Q01DX001 (ip), vehicle: Klucel (hydroxypropylcellulose) (HPC)).

For the compound `Nc1ccc(C(=O)Nc2ccc(NC(=O)c3ccco3)c(O)c2)cc1`, the T/C is 94 % of control under setting [13], 91 % of control under setting [14] and 89 % of control under setting [15].

For the compound `O=c1cc(O)c2ccc3ccccc3c2o1`, the T/C under setting [1] is 89 % of control, the T/C under setting [2] was 87 % of control and the T/C under setting [3] is 92 % of control.

With `O=P(O)(O)O.[Cr+3].[NH-]CC[NH-].[NH-]CC[NH-].[NH-]CC[NH-]`, the T/C is 101 % of control (dose: 25.0 mg/kg/injection, schedule: Q01DX009 (ip), vehicle: saline); 97 % of control under setting [4]; 99 % of control under setting [5].
